The subject of the test is S. aureus. Kind of test: Minimum inhibitory concentrations (MICs) for S. aureus of exemplary compounds (Table 2). It counts as cell-based. As to conditions: Staphylococcus aureus, minimum inhibitory concentrations for S. aureus; read-out: MICs. The essentials:
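MICs (μg/mL) against S. aureus come from microtiter-tray dilution susceptibility testing per NCCLS M7-A5, comparing growth with and without compound.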

≈ marks a conversion by molar mass, not a printed value.

Consider `CC(=O)NC[C@H]1CC(c2ccc(-c3ccc(CNC(=O)c4ccccc4C(=O)O)cc3)cc2)=NO1` [Compound 4106, N-{4′-[5-(R)-(Acetylamino-methyl)-4,5-dihydro-isoxazol-3-yl]-biphenyl-4-ylmethyl}-phthalamic acid], for which the MIC was determined as 128 µg/mL (≈ 271 µM).

Turning to `CC(=O)NC[C@H]1CC(c2ccc(-c3ccc(CNC(=O)c4ccccc4C(=O)O)cc3)nc2)=NO1` [Compound 4107, N-(4-{5-[5-(R)-(Acetylamino-methyl)-4,5-(S)-dihydro-isoxazol-3-yl]-pyridin-2-yl}-benzyl)-phthalamic acid], the MIC was found to be 128 µg/mL (≈ 271 µM).

Take `CC(=O)NC[C@H]1CN(c2ccc(-c3ccc(CNCc4sc(C)nc4C)cc3)c(F)c2)C(=O)O1` [Compound 4108, N-[3-(4′-{[(2,4-Dimethyl-thiazol-5-ylmethyl)-amino]-methyl}-2-fluoro-biphenyl-4-yl)-2-oxo-oxazolidin-5-(S)-ylmethyl]-acetamide]: the MIC worked out at 4 µg/mL (≈ 8.29 µM).

In the case of `CC(=O)NC[C@H]1CN(c2ccc(-c3ccc(CNCc4c(C)noc4C)cc3)c(F)c2)C(=O)O1` [Compound 4109, N-[3-(4′-{[(3,5-Dimethyl-isoxazol-4-ylmethyl)-amino]-methyl}-2-fluoro-biphenyl-4-yl)-2-oxo-oxazolidin-5-(S)-ylmethyl]-acetamide], the MIC turned out to be 1 µg/mL (≈ 2.14 µM).

Consider `CC(=O)NC[C@H]1CN(c2ccc(-c3ccc(C(=O)NCc4ccccn4)cc3)c(F)c2)C(=O)O1` [Compound 4110, 4′-[5-(S)-(Acetylamino-methyl)-2-oxo-oxazolidin-3-yl]-2′-fluoro-biphenyl-4-carboxylic acid (pyridin-2-ylmethyl)-amide], for which the MIC came out at 0.25 µg/mL (≈ 0.541 µM).

For `CC(=O)NC[C@H]1CN(c2ccc(-c3ccc(C(=O)NCc4ccco4)cc3)c(F)c2)C(=O)O1` [Compound 4111, 4′-[5-(S)-(Acetylamino-methyl)-2-oxo-oxazolidin-3-yl]-2′-fluoro-biphenyl-4-carboxylic acid (furan-2-ylmethyl)-amide], the MIC worked out at 2 µg/mL (≈ 4.43 µM).

For the molecule `CC(=O)NC[C@H]1CN(c2ccc(-c3ccc(C(=O)NCCc4scnc4C)cc3)c(F)c2)C(=O)O1` [Compound 4112, 4′-[5-(S)-(Acetylamino-methyl)-2-oxo-oxazolidin-3-yl]-2′-fluoro-biphenyl-4-carboxylic acid [2-(4-methyl-thiazol-5-yl)-ethyl]-amide], the MIC was 0.25 µg/mL (≈ 0.503 µM).

As to `CC(=O)NC[C@H]1CN(c2ccc(-c3ccc(CNCc4csc(-c5cccs5)n4)cc3)c(F)c2)C(=O)O1` [Compound 4113, N-[3-(2-Fluoro-4′-{[(2-thiophen-2-yl-thiazol-4-ylmethyl)-amino]-methyl}-biphenyl-4-yl)-2-oxo-oxazolidin-5-(S)-ylmethyl]-acetamide], the MIC turned out to be 0.25 µg/mL (≈ 0.466 µM).

As for `CC(=O)NC[C@H]1CN(c2ccc(-c3ccc(CNCCN4CCNC4=O)cc3)c(F)c2)C(=O)O1` [Compound 4114, N-[3-(2-Fluoro-4′-{[2-(2-oxo-imidazolidin-1-yl)-ethylamino]-methyl}-biphenyl-4-yl)-2-oxo-oxazolidin-5-(S)-ylmethyl]-acetamide], the MIC was 16 µg/mL (≈ 34.1 µM).

As to `CC(=O)NC[C@H]1CN(c2ccc(-c3ccc(C(=O)NCCc4ccccn4)cc3)c(F)c2)C(=O)O1` [Compound 4115, 4′-[5-(S)-(Acetylamino-methyl)-2-oxo-oxazolidin-3-yl]-2′-fluoro-biphenyl-4-carboxylic acid (2-pyridin-2-yl-ethyl)-amide], the MIC amounted to 0.5 µg/mL (≈ 1.05 µM).

With `CC(=O)NC[C@H]1CN(c2ccc(-c3ccc(C(=O)NCCc4cnc[nH]4)cc3)c(F)c2)C(=O)O1` [Compound 4116, 4′-[5-(S)-(Acetylamino-methyl)-2-oxo-oxazolidin-3-yl]-2′-fluoro-biphenyl-4-carboxylic acid [2-(3H-imidazol-4-yl)-ethyl]-amide], the MIC came to 1 µg/mL (≈ 2.15 µM).

`CC(=O)NC[C@H]1CN(c2ccc(-c3ccc(CNCc4cccnc4N4CCOCC4)cc3)c(F)c2)C(=O)O1` [Compound 4117, N-[3-(2-Fluoro-4′-{[(2-morpholin-4-yl-pyridin-3-ylmethyl)-amino]-methyl}-biphenyl-4-yl)-2-oxo-oxazolidin-5-(S)-ylmethyl]-acetamide]: the MIC amounted to 8 µg/mL (≈ 15 µM).

Regarding `CC(=O)NC[C@H]1CN(c2ccc(-c3ccc(CNCc4ccc(N5CCOCC5)nc4)cc3)c(F)c2)C(=O)O1` [Compound 4118, N-[3-(2-Fluoro-4′-{[(6-morpholin-4-yl-pyridin-3-ylmethyl)-amino]-methyl}-biphenyl-4-yl)-2-oxo-oxazolidin-5-(S)-ylmethyl]-acetamide], the MIC was 8 µg/mL (≈ 15 µM).

In the case of `CC(=O)NC[C@H]1CN(c2ccc(-c3ccc(CNCc4ccc(-c5ccccn5)s4)cc3)c(F)c2)C(=O)O1` [Compound 4119, N-[3-(2-Fluoro-4′-{[(5-pyridin-2-yl-thiophen-2-ylmethyl)-amino]-methyl}-biphenyl-4-yl)-2-oxo-oxazolidin-5-(S)-ylmethyl]-acetamide], the MIC came out at 1 µg/mL (≈ 1.88 µM).

`COC(=O)c1cc(CNCc2ccc(-c3ccc(N4C[C@H](CNC(C)=O)OC4=O)cc3F)cc2)oc1C` [Compound 4120, 5-[({4′-[5-(S)-(Acetylamino-methyl)-2-oxo-oxazolidin-3-yl]-2′-fluoro-biphenyl-4-ylmethyl}-amino)-methyl]-2-methyl-furan-3-carboxylic acid methyl ester]: the MIC turned out to be 1 µg/mL (≈ 1.96 µM).

For the molecule `CC(=O)NC[C@H]1CN(c2ccc(-c3ccc(CNCc4nc5ccccc5s4)cc3)c(F)c2)C(=O)O1` [Compound 4121, N-[3-(4′-{[(Benzothiazol-2-ylmethyl)-amino]-methyl}-2-fluoro-biphenyl-4-yl)-2-oxo-oxazolidin-5-(S)-ylmethyl]-acetamide], the MIC was determined as 0.5 µg/mL (≈ 0.991 µM).

With `CC(=O)NC[C@H]1CN(c2ccc(-c3ccc(CNCc4csc(-c5ccccc5)n4)cc3)c(F)c2)C(=O)O1` [Compound 4122, N-[3-(2-Fluoro-4′-{[(2-phenyl-thiazol-4-ylmethyl)-amino]-methyl}-biphenyl-4-yl)-2-oxo-oxazolidin-5-(S)-ylmethyl]-acetamide], the MIC turned out to be 1 µg/mL (≈ 1.88 µM).

For the molecule `CC(=O)NC[C@H]1CN(c2ccc(-c3ccc(CNCc4c[nH]c(-c5ccccc5)n4)cc3)c(F)c2)C(=O)O1` [Compound 4123, N-[3-(2-Fluoro-4′-{[(2-phenyl-1H-imidazol-4-ylmethyl)-amino]-methyl}-biphenyl-4-yl)-2-oxo-oxazolidin-5-(S)-ylmethyl]-acetamide], the MIC was determined as 16 µg/mL (≈ 31.2 µM).

As for `CCc1ncc(CNCc2ccc(-c3ccc(N4C[C@H](CNC(C)=O)OC4=O)cc3F)cc2)[nH]1` [Compound 4124, N-[3-(4′-{[(2-Ethyl-3H-imidazol-4-ylmethyl)-amino]-methyl}-2-fluoro-biphenyl-4-yl)-2-oxo-oxazolidin-5-(S)-ylmethyl]-acetamide], the MIC worked out at 16 µg/mL (≈ 34.4 µM).

Regarding `CC(=O)NC[C@H]1CN(c2ccc(-c3ccc(CNCc4c(C(F)(F)F)nn(C)c4Cl)cc3)c(F)c2)C(=O)O1` [Compound 4125, N-[3-(4′-{[(5-Chloro-1-methyl-3-trifluoromethyl-1H-pyrazol-4-ylmethyl)-amino]-methyl}-2-fluoro-biphenyl-4-yl)-2-oxo-oxazolidin-5-(S)-ylmethyl]-acetamide], the MIC came to 0.5 µg/mL (≈ 0.903 µM).

For the molecule `CC(=O)NC[C@H]1CN(c2ccc(-c3ccc(CNCc4c(C)nn(C)c4Cl)cc3)c(F)c2)C(=O)O1` [Compound 4126, N-[3-(4′-{[(5-Chloro-1,3-dimethyl-1H-pyrazol-4-ylmethyl)-amino]-methyl}-2-fluoro-biphenyl-4-yl)-2-oxo-oxazolidin-5-(S)-ylmethyl]-acetamide], the MIC turned out to be 0.5 µg/mL (≈ 1 µM).

On to `CC(=O)NC[C@H]1CN(c2ccc(-c3ccc(CNCc4c[nH]nc4-c4cccs4)cc3)c(F)c2)C(=O)O1` [Compound 4127, N-[3-(2-Fluoro-4′-{[(3-thiophen-2-yl-1H-pyrazol-4-ylmethyl)-amino]-methyl}-biphenyl-4-yl)-2-oxo-oxazolidin-5-(S)-ylmethyl]-acetamide], for which the MIC worked out at 0.5 µg/mL (≈ 0.962 µM).

Turning to `CSc1nc(CNCc2ccc(-c3ccc(N4C[C@H](CNC(C)=O)OC4=O)cc3F)cc2)ccc1C#N` [Compound 4128, N-[3-(4′-{[(5-Cyano-6-methylsulfanyl-pyridin-2-ylmethyl)-amino]-methyl}-2-fluoro-biphenyl-4-yl)-2-oxo-oxazolidin-5-(S)-ylmethyl]-acetamide], the MIC stood at 0.5 µg/mL (≈ 0.962 µM).

Turning to `CC(=O)NC[C@H]1CN(c2ccc(-c3ccc(CNCc4c(N)oc5ccccc5c4=O)cc3)c(F)c2)C(=O)O1` [Compound 4129, N-[3-(4′-{[(2-Amino-4-oxo-4H-chromen-3-ylmethyl)-amino]-methyl}-2-fluoro-biphenyl-4-yl)-2-oxo-oxazolidin-5-(S)-ylmethyl]-acetamide], the MIC was 4 µg/mL (≈ 7.54 µM).

For the molecule `CC(=O)NC[C@H]1CN(c2ccc(-c3ccc(CNCc4cc(-c5ccccc5)oc4C)cc3)c(F)c2)C(=O)O1` [Compound 4130, N-[3-(2-Fluoro-4′-{[(2-methyl-5-phenyl-furan-3-ylmethyl)-amino]-methyl}-biphenyl-4-yl)-2-oxo-oxazolidin-5-(S)-ylmethyl]-acetamide], the MIC worked out at 2 µg/mL (≈ 3.79 µM).

As to `CC(=O)NC[C@H]1CN(c2ccc(-c3ccc(CNCC4CCC=CO4)cc3)c(F)c2)C(=O)O1` (stereo partly drawn) [Compound 4131, N-[3-(4′-{[(3,4-Dihydro-2H-pyran-2-ylmethyl)-amino]-methyl}-2-fluoro-biphenyl-4-yl)-2-oxo-oxazolidin-5-(S)-ylmethyl]-acetamide], the MIC was 1 µg/mL (≈ 2.21 µM).

`CC(=O)NC[C@H]1CC(c2ccc(-c3ccc(CNCc4ccncc4)cc3)cc2)=NO1` [Compound 4132, N-[3-(4′-{[(Pyridin-4-ylmethyl)-amino]-methyl}-biphenyl-4-yl)-4,5-dihydro-isoxazol-5-(R)-ylmethyl]-acetamide]: the MIC was determined as 4 µg/mL (≈ 9.65 µM).

On to `CC(=O)NC[C@H]1CC(c2ccc(-c3ccc(CNCc4ccncc4)cc3)nc2)=NO1` [Compound 4133, N-{3-[6-(4-{[(Pyridin-4-ylmethyl)-amino]-methyl}-phenyl)-pyridin-3-yl]-4,5-dihydro-isoxazol-5-(R)-ylmethyl}-acetamide], for which the MIC turned out to be 128 µg/mL (≈ 308 µM).

Regarding `CC(=O)NC[C@H]1CN(c2ccc(-c3ccc(CNCc4ccncc4)cc3)nc2)C(=O)O1` [Compound 4134, N-{2-Oxo-3-[6-(4-{[(pyridin-4-ylmethyl)-amino]-methyl}-phenyl)-pyridin-3-yl]-oxazolidin-5-(S)-ylmethyl}-acetamide], the MIC turned out to be 16 µg/mL (≈ 37.1 µM).

For the origin of these results see US10471046B2, “Method for treating, preventing, or reducing the risk of skin infection” (Melinta Subsidiary Corp., priority 2014, dated 2019).
